Reference: US20120301895A1, “METHODS OF MODULATING BINDING OF SON OF SEVENLESS TO PHOSPHATIDIC ACID AND IDENTIFYING COMPOUNDS THAT MODULATE SUCH BINDING” (THE RESEARCH FOUNDATION OF STATE UNIVERSITY OF NEW YORK, priority 2007, published 2012)

Legend:
[1] = target: T1, PLD1 (Homo sapiens, UniProt Q13393); experiment: In vitro PLD activity, exogenous substrate assay, PLD1; type: biochemical; details: purified recombinant PLD1 with ARF-1, 30 min at 37° C.
T1 construct: made in house
T1 sequence (Q13393 1-1074): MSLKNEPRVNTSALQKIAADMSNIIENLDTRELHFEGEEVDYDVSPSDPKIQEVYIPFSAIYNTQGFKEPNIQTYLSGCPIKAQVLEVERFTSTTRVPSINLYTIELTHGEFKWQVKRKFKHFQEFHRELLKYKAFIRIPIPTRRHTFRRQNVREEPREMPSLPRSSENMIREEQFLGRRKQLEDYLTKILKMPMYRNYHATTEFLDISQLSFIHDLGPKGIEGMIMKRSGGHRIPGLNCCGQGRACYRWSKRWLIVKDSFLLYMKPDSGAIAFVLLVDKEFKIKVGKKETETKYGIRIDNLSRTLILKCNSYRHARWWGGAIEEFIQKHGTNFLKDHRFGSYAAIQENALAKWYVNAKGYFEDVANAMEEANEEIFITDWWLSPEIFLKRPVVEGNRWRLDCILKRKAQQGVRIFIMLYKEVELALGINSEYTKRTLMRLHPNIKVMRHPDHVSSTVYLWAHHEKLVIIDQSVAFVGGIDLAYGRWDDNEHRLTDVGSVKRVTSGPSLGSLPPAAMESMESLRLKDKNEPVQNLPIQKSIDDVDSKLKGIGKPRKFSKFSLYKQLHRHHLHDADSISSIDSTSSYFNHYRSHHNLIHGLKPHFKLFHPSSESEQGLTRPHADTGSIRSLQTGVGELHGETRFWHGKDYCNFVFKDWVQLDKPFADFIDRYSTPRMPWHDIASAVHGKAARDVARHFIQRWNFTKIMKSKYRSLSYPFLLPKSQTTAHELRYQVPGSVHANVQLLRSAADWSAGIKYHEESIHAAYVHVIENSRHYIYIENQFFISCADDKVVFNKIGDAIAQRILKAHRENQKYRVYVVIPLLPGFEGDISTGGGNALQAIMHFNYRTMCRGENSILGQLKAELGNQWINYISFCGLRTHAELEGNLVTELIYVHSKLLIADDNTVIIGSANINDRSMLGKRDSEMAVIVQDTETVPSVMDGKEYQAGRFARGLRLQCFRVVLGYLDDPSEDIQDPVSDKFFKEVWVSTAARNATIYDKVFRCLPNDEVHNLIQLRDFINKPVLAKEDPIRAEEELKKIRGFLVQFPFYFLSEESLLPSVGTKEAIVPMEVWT
Procedure: In FIG. 13A, MDA-MB-231 cells were plated as in FIGS. 12A-C and then shifted to either 10% serum or 0.5% serum overnight as indicated. Honokiol (20 μM) or control ethanol was then added for 4 hr as indicated, at which time the cells were harvested and the levels of PBt were determined as in FIGS. 12A-C. The experiment shown is representative of at least three independent experiments. In FIG. 13B, the effect of honokiol on the activity of PLD isoforms was measured using exogenous substrate assay as described previously (Henage et al., “Kinetic Analysis of a Mammalian Phospholipase D: Allosteric Modulation by Monomeric GTPases, Protein Kinase C, and Polyphosphoinositides,” J. Biol. Chem. 281:3408-17 (2006), which is hereby incorporated by reference in its entirety). […] The amount of background was determined and subtracted using a bovine serum albumin standard. […]
For in vivo PLD activity, cells were plated in 60 mm culture dishes in DMEM with 10% serum at a density that would allow them to grow to about 80% confluence after 2 days, then cells were shifted to DMEM containing 0.5% or 10% serum as indicated in the figure legends overnight. […] Briefly, PLD activity was measured by the release of [methyl-^3H] choline from [choline-methyl-^3H]dipalmitoyl-phosphatidylcholine. […]

[2] = tested on: HIF2α; experiment: HIF2α expression in 786-O cells (Western blot); type: cell-based, human; details: 0.5% serum, 4 hr, honokiol 20 μM, 1-BtOH 0.8%
Procedure: In FIG. 15B, 786-O cells were plated and then shifted to media containing 0.5% serum 24 hr later. 18 hr later, the cells were treated with 1-Bt0H (0.8%), honokiol (Hon) (20 μM), and t-BtOH (0.8%) as indicated. Cell lysates were prepared 4 hr later and examined for HIF2α and actin expression by Western lot analysis. The experiment shown is representative of two independent experiments.
Extraction of proteins from cultured cells and Western blot analysis of extracted proteins was performed using the ECL system (Amersham) as described previously (Chen et al., “Alternative Phospholipase D/mTOR Survival Signal in Human Breast Cancer Cells,” Oncogene 24:672-9 (2005), which is hereby incorporated by reference in its entirety).
The effect of honokiol on HIF2α expression was examined in these cells.

`C=CCc1ccc(O)c(-c2ccc(O)c(CC=C)c2)c1` [honokiol, Honokiol] was tested, and the “in vitro activity of PLD1” value [1] was “no significant effect” and the HIF2α expression [2] was “suppresses”.
